Where two headings read alike, the source gives them in different places.
What was measured:
[1] = Tissue distribution in rats; assay type: in vivo; conditions: both sexes, rat, po, 20 mg/kg gavage
Description: The exposures in body fat, small intestine, heart, uterus, skeletal muscle, testis and brain were lower than in plasma and the rest were higher than in plasma. The highest exposures were found in the liver, stomach and lung, which were 358, 202 and 173% of plasma, respectively. […] There was no significant sex difference in the exposure of SY-5007 in rat tissues.

Caco-2 permeability = assay type: in vitro ADME, human
[2] = system: Baf3-CCDC6-RET^WT xenograft; test: Tumor xenograft model; assay type: in vivo, BALB/c nude mice
Procedure: (§1) All procedures relating to animal handling, care, and treatment were performed according to the Beijing Laboratory Animal Management Regulations. 6-week-old male BALB/c nude mice were inoculated subcutaneously into the flank with Baf3-CCDC6-RET^WT (5*10^6 cells/ 0.1 mL/ each), Baf3-CCDC6-RET^M918T (5*10^6 cells/0.1 mL/each), Baf3-CCDC6-RET^V804M (5*10^6 cells/ 0.1 mL/ each), or HEK293T-KIF5B-RET^V804M (5*10^6 cells/ 0.1 mL/ each). Mice were randomized by tumor size into groups of 10 to 12 when tumor volume reached approximately 100-150 mm^3. […] Tumor size and body weight were measured two times each week, and tumor volume was calculated with the following formula: [length × (width)^2]/ 2. Statistical significance was calculated by using two-way ANOVA test to assess the difference in tumor volumes between the control (vehicle-treated) and treatment groups.

[3] = system: Baf3-CCDC6-RET^M918T xenograft; test: Tumor xenograft model; assay type: in vivo, BALB/c nude mice; conditions: 9 days
Procedure: as §1

[4] = system: Baf3-CCDC6-RET^V804M xenograft; test: Tumor xenograft model; assay type: in vivo, BALB/c nude mice; conditions: 9 days
Procedure: as §1

[5] = system: HEK293T-KIF5B-RET^V804M xenograft; test: Tumor xenograft model; assay type: in vivo, BALB/c nude mice; conditions: 14 days
Procedure: as §1

CYP2C19 = molecular target: T1, CYP2C19 (Homo sapiens, UniProt P33261); test: CYP inhibition in human liver microsomes; assay type: in vitro ADME; conditions: 0.5-25 μM
T1 construct: substrates of different CYP450 enzymes in mixed human liver microsomes; from tissue; host or cells: mixed human liver microsomes

beagles = test: 28-day repeat-dose toxicity; assay type: in vivo
central nervous system = test: Central nervous system safety pharmacology; assay type: in vivo, SD rats; conditions: single oral, males 15-40, females 30-80 mg/kg
Procedure: All rats were evaluated for cage-side observation, detailed clinical observation, body weight and neurofunctional behavioural indices including in-cage observation, restraint observation, field observation, stimulus reflex observation and body temperature.

[6] = high-dose study, 10 mg/kg (so in the source)

T1 sequence (P33261 whole entry): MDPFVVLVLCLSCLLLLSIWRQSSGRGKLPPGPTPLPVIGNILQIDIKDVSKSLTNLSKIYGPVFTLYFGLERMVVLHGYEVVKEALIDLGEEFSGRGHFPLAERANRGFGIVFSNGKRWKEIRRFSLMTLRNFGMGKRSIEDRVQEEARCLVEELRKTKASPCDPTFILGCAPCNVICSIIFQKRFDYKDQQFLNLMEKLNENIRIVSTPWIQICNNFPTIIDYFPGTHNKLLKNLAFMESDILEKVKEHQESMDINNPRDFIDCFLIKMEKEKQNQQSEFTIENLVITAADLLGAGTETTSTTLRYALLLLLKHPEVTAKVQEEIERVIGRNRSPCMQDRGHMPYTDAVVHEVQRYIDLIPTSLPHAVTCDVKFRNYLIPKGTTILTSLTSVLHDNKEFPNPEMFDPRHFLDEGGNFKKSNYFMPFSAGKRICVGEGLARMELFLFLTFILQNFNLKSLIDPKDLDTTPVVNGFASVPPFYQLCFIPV

COc1ccc(CN2C3CC2CN(c2ccc(-c4cc(N5CC(C)(O)C5)cn5ncc(C#N)c45)cn2)C3)cn1 [SY-5007, 6-(3-hydroxy-3-methylazetidin-1-yl)-4-(6-(6-((6-methoxypyridin-3-yl)methyl)-3,6-diazabicyclo[3.1.1]heptan-3-yl)pyridin-3-yl)pyrazolo[1,5-a]pyridine-3-carbonitrile]
Kp ([1]; brain, read-out: Brain exposure (AUC0~24h)): 0.00195
Kp ([1]; liver, read-out: Liver exposure (AUC0~24h)): 3.58
Kp ([1]; lung, read-out: Lung exposure (AUC0~24h)): 1.73
Kp ([1]; stomach, read-out: Stomach exposure (AUC0~24h)): 2.02
Permeability class (Caco-2 permeability): moderately permeable
TGI ([2]; 3 mg/kg twice daily, 13 days): 59.2%
TGI ([2]; 6 mg/kg twice daily, 13 days): 80.1%
TGI ([2]; 12 mg/kg twice daily, 13 days): 93.5%
TGI [2, 6]: 112%
Tumor regression rate (REG) [2, 6]: 97.3%
TGI ([2]; high-dose study, 20 mg/kg): 107%
Tumor regression rate (REG) ([2]; high-dose study, 20 mg/kg): 57.7%
Tumor regression rate (REG) ([2]; high-dose study, 40 mg/kg (so in the source)): 0%
TGI ([3]; 10 mg/kg oral): 12.4%
TGI ([3]; 20 mg/kg oral): 40.9%
TGI ([3]; 40 mg/kg oral): 93.0%
TGI ([4]; 10 mg/kg oral): 35.4%
TGI ([4]; 20 mg/kg oral): 85.3%
TGI ([4]; 40 mg/kg oral): 109%
TGI ([5]; 10 mg/kg twice daily): 40.7%
TGI ([5]; 20 mg/kg twice daily): 70.3%
TGI ([5]; 40 mg/kg twice daily): 94.1%
IC50 (CYP2C19): > 25 µM
HNSTD (beagles; female Beagle, GLP long toxicity study): 8 mg/kg
HNSTD (beagles; females, 28 days): 8 mg/kg
HNSTD (beagles; male Beagle, GLP long toxicity study): 4 mg/kg
HNSTD (beagles; males, 28 days): 4 mg/kg
Bleeding tendency: gastric mucosa and ileum findings (beagles; preclinical Beagle dogs, repeated dosing): ? This drug was found to have gastric mucosal reddening and ileal discolouration in preclinical SD rats and Beagle dogs in repeated dosing tests, so the relevant provisions were made.
Electrolyte abnormalities (blood PK) (beagles; preclinical Beagle repeated administration): ? Abnormalities such as blood PK were found in the preclinical SD rat and Beagle repeated administration test of this product, and the relevant regulations were carried out in consideration of the fact that similar mechanism of action drugs have been reported.
CNS effects (central nervous system): did not affect any of the assessed neurofunctional-behavioural parameters
